Data taken from US4895842A, “Phenylalanine derivative and proteinase inhibitor” (Shosuke Okamoto, priority 1985, dated 1990).
Structures can show the parent of a compound that is named as a salt. Where two headings read alike, the source gives them in different places.

Columns and labels:
human plasmin [1] = target: T1, human plasmin (Homo sapiens, UniProt P00747); experiment: biochemical; details: read-out: Plasmin S-2251 (I50)
Procedure: An inhibitor sample is dissolved in a 0.05M Tris-hydrochloric acid buffer solution (pH=7.4) to make the total volume of 400 μl. […] Then, 50 μl of a 0.2 casein unit/ml human plasmin is added and the mixture is incubated at a temperature of 37° C. for 4 minutes. Thereafter, the reaction is stopped by adding 50 μl of 50% acetic acid.
Thus, the concentration I50 (μmol) of the inhibitor sample, at which the absorbance is one half (i.e., 1/2) of that obtained in the absence of the inhibitor, is determined.

human plasmin [2] = target: T1, human plasmin; experiment: Antiplasmin activity: inhibition of fibrin decomposition; type: biochemical; details: read-out: Plasmin Fibrin (I50)
Procedure: (i) Determination of inhibition activity for fibrin decomposition
An inhibitor sample is dissolved in a 0.18M borate-physiological salt buffer solution (pH=7.4) to make the total volume to 600 μl. To this buffer solution, 200 μl of a 0.2% bovine fibrinogen, 100 μl of a 0.3 casein unit/ml human plasmin solution, and 100 μl of a 50 unit/ml bovine thrombin solution, all dissolved in the above-mentioned buffer, are added at a temperature of 37° C. in a constant temperature bath. Then, the dissolution time of the fibrin mass formed above is determined.

bovine thrombin [3] = target: T2, bovine thrombin (Bos taurus, UniProt P00735); experiment: Antithrombin activity: inhibition of S-2238 decomposition; type: biochemical
Procedure: (ii) Determination of inhibition activity for S-2238 decomposition
An inhibitor sample is dissolved in a 0.05M Tris-hydrochloric acid buffer solution (pH=8.3) to make a total volume of 400 μl. To this solution, 50 μl of a 0.2 mM S-2238 solution is added and the mixture is incubated at a temperature of 37° C. for 5 minutes in a constant temperature bath. Then, 50 μl of a 0.2 unit/ml bovine thrombin solution is added thereto and the absorbance, at 405 nm, of the p-nitroaniline formed per minute is determined at a temperature of 37° C. by using the so-called initial velocity method. Thus, the concentration I50 (μmol) of the inhibitor sample at which the absorbance is one half (i.e., 1/2) of that obtained in the absence of the inhibitor sample, is determined.

bovine thrombin [4] = target: T2, bovine thrombin; experiment: Antithrombin activity: inhibition of fibrin formation from fibrinogen; type: biochemical
Procedure: (i) Determination of inhibition activity against fibrin formation
An inhibitor sample is dissolved in a 0.18M borate-physiological salt buffer solution (pH=7.4) to make the total volume to 500 μl. To this solution, 400 μl of a 0.2% bovine fibrinogen solution and 100 μl of a 4 unit/ml bovine thrombin solution are added at a temperature of 37° C. in a constant temperature bath. Thus, a coagulation time is determined. The inhibitor concentration I50 (μmol), at which the coagulation time obtained in the absence of the inhibitor is extended twice, is determined.

bovine trypsin = target: T3, bovine trypsin (Bos taurus, UniProt P00760); experiment: Antitrypsin activity: inhibition of S-2238 decomposition; type: biochemical
T3 sequence (P00760 24-246): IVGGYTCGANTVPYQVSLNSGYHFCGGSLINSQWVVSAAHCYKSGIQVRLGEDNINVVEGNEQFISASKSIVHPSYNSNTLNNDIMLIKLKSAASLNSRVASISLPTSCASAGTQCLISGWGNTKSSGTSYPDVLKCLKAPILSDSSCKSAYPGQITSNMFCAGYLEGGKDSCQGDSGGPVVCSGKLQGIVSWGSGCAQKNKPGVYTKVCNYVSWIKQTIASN

human plasma kallikrein = human plasma kallikrein (Homo sapiens, UniProt P03952); experiment: Anti-plasma kallikrein activity: inhibition of S-2302 decomposition; type: biochemical
human plasma kallikrein, sequence (P03952 391-638 limits assumed): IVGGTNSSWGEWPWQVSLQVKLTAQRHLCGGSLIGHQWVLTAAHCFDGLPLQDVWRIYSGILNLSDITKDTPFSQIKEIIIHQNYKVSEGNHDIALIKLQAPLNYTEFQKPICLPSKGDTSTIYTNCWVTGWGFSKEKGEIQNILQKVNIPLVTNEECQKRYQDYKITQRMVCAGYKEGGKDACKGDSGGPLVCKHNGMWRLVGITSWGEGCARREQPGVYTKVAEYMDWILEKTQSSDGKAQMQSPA
human plasma kallikrein, sequence (P03952 20-390 partner limits assumed): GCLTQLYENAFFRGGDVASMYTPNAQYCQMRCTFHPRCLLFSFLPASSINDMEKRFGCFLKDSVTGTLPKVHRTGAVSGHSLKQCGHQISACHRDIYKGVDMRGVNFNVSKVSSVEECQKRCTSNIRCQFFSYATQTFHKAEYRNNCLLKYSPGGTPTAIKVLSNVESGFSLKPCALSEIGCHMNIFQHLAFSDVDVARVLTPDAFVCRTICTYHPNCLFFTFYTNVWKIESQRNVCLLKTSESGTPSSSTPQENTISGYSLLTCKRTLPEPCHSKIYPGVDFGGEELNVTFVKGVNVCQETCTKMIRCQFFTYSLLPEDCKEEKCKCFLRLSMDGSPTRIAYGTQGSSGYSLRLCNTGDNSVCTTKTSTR
Procedure: Determination of inhibition activity for S-2302 decomposition
An inhibitor sample is dissolved in a 0.05M Tris-hydrochloric acid buffer solution (pH=7.8) to make the total volume to 400 μl. To this solution, 50 μl of a 2 mM S-2302 solution is added and the mixture is incubated at a temperature of 37° C. for 5 minutes in a constant temperature bath. Then, 50 μl of a 0.12 unit/ml human plasma kallikrein is added and the mixture is incubated at a temperature of 37° C. for 5 minutes. Thereafter, 50 μl of 50% acetic acid is added to terminate the reaction. The absorbance of the p-nitroaniline formed in the reaction mixture is measured at 405 nm. Thus, the concentration I50 (μmol) of the inhibitor sample, at which the absorbance is one half (i.e., 1/2) of that obtained in the absence of the inhibitor sample, is determined.

human urokinase = human urokinase (Homo sapiens, UniProt P00749); experiment: biochemical
Procedure: Determination of inhibition activity for S-2444 decomposition
An inhibitor sample is dissolved in a 0.05M Tris-hydrochloric acid buffer solution (pH=8.8) to make the total volume to 400 μl. To this solution, 50 μl of a 1 mM S-2444 solution is added and the mixture is incubated at a temperature of 37° C. for 5 minutes in a constant temperature bath. Then, 50 μl of a 500 unit/ml human urokinase is added and the mixture is incubated at a temperature of 37° C. for 5 minutes. Thereafter, 50 μl of 50% acetic acid is added to terminate the reaction. The absorbance of the p-nitroaniline formed in the reaction mixture is measured at 405 nm. Thus, the concentration I50 (μmol) of the inhibitor sample, at which the absorbance is one half (i.e., 1/2) of that obtained in the absence of the inhibitor sample, is determined.

[5] = Table 4, comparative compounds of Table 3, S-2251 substrate, pH 7.4, 37° C.
[6] = Table 4, comparative compounds of Table 3, fibrin dissolution time extended twice
[7] = Table 4, comparative compounds of Table 3, S-2238 substrate, pH 8.3, read-out: Thrombin S-2238 (I50)
[8] = Table 4, comparative compounds of Table 3, coagulation time extended twice, read-out: Thrombin Fibrinogen (I50)
[9] = Table 2, concentration at which fibrin dissolution time is extended twice, pH 7.4, 37° C.
[10] = Table 2, S-2238 substrate, pH 8.3, 37° C., read-out: Thrombin S-2238 (I50)
[11] = Table 2, S-2238 substrate, pH 8.1, 37° C., read-out: Trypsin S-2238 (I50)
[12] = Table 2, S-2302 substrate, pH 7.8, 37° C., read-out: Plasma Kallikrein S-2302 (I50)
[13] = Table 2, S-2444 substrate, pH 8.8, 37° C., read-out: Urokinase S-2444 (I50)
[14] = Table 4, comparative compounds of Table 3, S-2302 substrate, pH 7.8, read-out: Plasma Kallikrein S-2302 (I50)
[15] = Table 4, comparative compounds of Table 3, S-2444 substrate, pH 8.8, read-out: Urokinase S-2444 (I50)

T1 sequence (P00747 581-810 limits assumed): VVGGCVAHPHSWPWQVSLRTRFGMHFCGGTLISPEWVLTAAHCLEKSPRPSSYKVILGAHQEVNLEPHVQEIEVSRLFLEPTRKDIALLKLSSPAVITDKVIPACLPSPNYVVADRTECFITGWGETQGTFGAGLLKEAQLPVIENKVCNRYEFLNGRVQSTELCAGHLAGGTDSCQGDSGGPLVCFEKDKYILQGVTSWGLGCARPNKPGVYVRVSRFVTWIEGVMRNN
T1 sequence (P00747 97-580 partner limits assumed): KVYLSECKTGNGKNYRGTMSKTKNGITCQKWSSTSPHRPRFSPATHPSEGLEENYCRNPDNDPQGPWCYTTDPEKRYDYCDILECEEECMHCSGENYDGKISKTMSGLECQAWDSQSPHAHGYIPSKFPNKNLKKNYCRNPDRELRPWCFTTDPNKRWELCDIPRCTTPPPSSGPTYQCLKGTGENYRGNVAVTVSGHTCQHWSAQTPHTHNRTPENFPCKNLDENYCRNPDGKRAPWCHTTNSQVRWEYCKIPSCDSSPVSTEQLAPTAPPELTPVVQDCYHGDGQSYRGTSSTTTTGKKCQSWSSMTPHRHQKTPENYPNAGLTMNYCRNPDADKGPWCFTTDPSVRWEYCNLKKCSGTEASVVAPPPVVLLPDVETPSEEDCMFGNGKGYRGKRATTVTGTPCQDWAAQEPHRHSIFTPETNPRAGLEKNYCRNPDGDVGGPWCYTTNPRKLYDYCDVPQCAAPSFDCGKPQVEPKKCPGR

IC50 (human plasmin [1])	IC50 (human plasmin [2]; [9])	IC50 (bovine thrombin [3]; [10])	IC50 (bovine thrombin [4])	IC50 (bovine trypsin; [11])	IC50 (human plasma kallikrein; [12])	IC50 (human urokinase; [13])	SMILES	other results
							CC(=O)NC(Cc1ccc([N+](=O)[O-])cc1)C(=O)Nc1ccc([N+](=O)[O-])cc1 (stereo not drawn) [Table 3 Compound No. 4, reference compound]	IC50 (human plasmin [1]; [5]): > 100 µM; IC50 (human plasmin [2]; [6]): > 100 µM; IC50 (bovine thrombin [3]; [7]): > 100 µM; IC50 (bovine thrombin [4]; [8]): > 100 µM; IC50 (bovine trypsin): > 150 µM; IC50 (human plasma kallikrein): > 100 µM; IC50 (human urokinase): > 100 µM
2.3 µM	0.41 µM	> 50 µM	> 50 µM	2.5 µM	60 µM	> 400 µM	CC1CCC(NC(=O)[C@H](Cc2ccc(OCc3ccccc3)cc2)NC(=O)c2ccc(CN)cc2)CC1 (stereo partly drawn) [compound 38]	
5.6 µM	0.88 µM	> 125 µM	> 100 µM	1.1 µM	2.4 µM	65 µM	CCOC(=O)c1cccc(NC(=O)[C@H](Cc2ccc(OCc3ccccc3)cc2)NC(=O)[C@H]2CC[C@H](CN)CC2)c1 [compound 75]	
0.95 µM	0.35 µM	> 100 µM	> 50 µM	0.97 µM	0.42 µM	23 µM	CCOC(=O)c1ccc(COc2ccc(C[C@H](NC(=O)[C@H]3CC[C@H](CN)CC3)C(=O)Nc3ccc(C(C)=O)cc3)cc2)cc1 [compound 86]	
0.9 µM	0.58 µM	> 400 µM	> 200 µM	1.2 µM	0.66 µM	37 µM	NC[C@H]1CC[C@H](C(=O)N[C@@H](Cc2ccc(Oc3cc(Cl)ccc3[N+](=O)[O-])cc2)C(=O)Nc2ccncc2)CC1 [Compound No. 137, N-(trans-4-aminomethylcyclohexylcarbonyl)-4-(3-chloro-6-nitrophenoxy)-L-phenylalanine 4-pyridylamide dihydrochloride]	
170 µM	56 µM	> 200 µM	> 500 µM	4.4 µM	17 µM	> 250 µM	NCc1ccc(C(=O)N[C@@H](Cc2ccccc2)C(=O)Nc2cccc(C(F)(F)F)c2)cc1 [compound 131]	
1.6 µM	0.32 µM	> 200 µM	> 100 µM	2.5 µM	1.2 µM	78 µM	NCC1CCC(C(=O)NC(Cc2ccc(OCc3cccc(Cl)c3)cc2)C(=O)Nc2cccc(S(N)(=O)=O)c2)CC1 (stereo not drawn) [compound 93]	
2.5 µM	0.49 µM		> 250 µM	1.1 µM	2.3 µM	65 µM	NC[C@H]1CC[C@H](C(=O)N[C@@H](Cc2ccc(OCc3ccccc3)cc2)C(=O)NC2CC3CCC2C3)CC1 (stereo partly drawn) [compound 64]	IC50 (bovine thrombin [3]): > 400 µM
1.5 µM	0.29 µM	> 200 µM	> 50 µM	1.8 µM	0.41 µM	20 µM	NC[C@H]1CC[C@H](C(=O)N[C@@H](Cc2ccc(OCc3ccc(Cl)c(Cl)c3)cc2)C(=O)Nc2ccncc2)CC1 [compound 127]	
	2.9 µM	> 50 µM		7 µM	40 µM	> 400 µM	CC1CCCC(NC(=O)[C@H](Cc2ccc(OCc3ccccc3)cc2)NC(=O)c2ccc(CN)cc2)C1C (stereo partly drawn) [compound 82]	IC50 (human plasmin [1]; Table 2, 50% inhibition concentration, S-2251 substrate, pH 7.4, 37° C.): 8.5 µM; IC50 (bovine thrombin [4]; read-out: Thrombin Fibrinogen (I50), Table 2, concentration at which coagulation time of bovine fibrinogen is extended twice, pH 7.4, 37° C.): > 25 µM
5.3 µM	3.4 µM		> 100 µM	22 µM	> 100 µM	> 200 µM	NC[C@H]1CC[C@H](C(=O)N[C@@H](Cc2ccc(OCc3ccccc3)cc2)C(=O)N2CCC(C(=O)c3ccccc3)CC2)CC1 [compound 48]	IC50 (bovine thrombin [3]): > 200 µM
		> 1000 µM	> 1000 µM	1.3 µM			CC(=O)c1ccc(NC(=O)[C@H](Cc2ccccc2)NC(=O)[C@H]2CC[C@H](CN)CC2)cc1 [Compound No. 2, N-(trans-4-aminomethylcyclohexylcarbonyl)-L-phenylalanine 4-acetylanilide]	
							NC[C@H]1CC[C@H](C(=O)O)CC1 [Table 3 Compound No. 1, tranexamic acid, reference compound]	IC50 (bovine thrombin [3]; [7]): > 1000 µM; IC50 (bovine thrombin [4]; [8]): > 1000 µM; IC50 (bovine trypsin; Table 4, comparative compounds of Table 3, S-2238 substrate, pH 8.1, read-out: Trypsin S-2238 (I50)): > 1000 µM; IC50 (human plasma kallikrein; [14]): > 1000 µM; IC50 (human urokinase; [15]): > 1000 µM
	0.68 µM	> 1000 µM	> 500 µM	1.8 µM			NC[C@H]1CC[C@H](C(=O)N[C@@H](Cc2ccc(OCc3ccccc3)cc2)C(=O)Nc2ccncc2)CC1 [compound 40]	
5.2 µM	1.1 µM	> 50 µM		5.8 µM	> 50 µM	> 300 µM	NCC1CCC(C(=O)NC(Cc2ccc(OCc3ccccc3)cc2)C(=O)NCc2ccc(F)cc2)CC1 (stereo not drawn) [compound 111]	
	0.095 µM		> 50 µM	1 µM			CC(=O)c1ccc(NC(=O)[C@H](Cc2ccc(OCc3cccc(Cl)c3)cc2)NC(=O)[C@H]2CC[C@H](CN)CC2)cc1 [Compound No. 35, N-(trans-4-aminomethylcyclohexylcarbonyl)-4-(3-chlorobenzyloxy)-L-phenylalanine 4-acetylanilide methane sulfonate]	IC50 (bovine thrombin [3]): > 100 µM
							CC(=O)NC(Cc1ccc(OCc2ccccc2)cc1)C(=O)N(C)C (stereo not drawn) [Table 3 Compound No. 5, reference compound]	IC50 (human plasmin [1]; [5]): > 200 µM; IC50 (human plasmin [2]; [6]): > 200 µM; IC50 (bovine thrombin [3]; [7]): > 200 µM; IC50 (bovine thrombin [4]; [8]): > 200 µM; IC50 (human plasma kallikrein; [14]): > 200 µM; IC50 (human urokinase; [15]): > 200 µM
1.4 µM	0.31 µM	> 50 µM	> 25 µM		0.16 µM	120 µM	CC(=O)c1ccc(NC(=O)[C@H](Cc2ccc(OCc3c(Cl)cccc3Cl)cc2)NC(=O)[C@H]2CC[C@H](CN)CC2)cc1 [compound 20]	
